Reference: PMC9045296, “Development of Antifungal Peptides against Cryptococcus neoformans; Leveraging Knowledge about the cdc50Δ Mutant Susceptibility for Lead Compound Development” (Microbiology Spectrum, 2022)
In brackets after ≈: the same amount, converted by molar mass. Residues, ends and D or L forms follow the SMILES beside them. *: point of attachment. Palmitoyl = CCCCCCCCCCCCCCCC(=O)*; Myristoyl = CCCCCCCCCCCCCC(=O)*; Decanoyl = CCCCCCCCCC(=O)*; Hexanoyl = CCCCCC(=O)*

Legend:
Format in all cases: cell-based, Cryptococcus neoformans
[1] = test system: C. neoformans wild-type strain H99; experiment: microbe, parasite or virus in culture; details: for MIC H99: Table S1, drug alone, wild type H99; for MIC: drug alone, H99 wild type, CLSI broth microdilution, RPMI, 2.5*10^3 cells/mL, 37°C, read at 24 and 48 h
Description: (§1) Our assays followed standard CLSI protocol for broth microdilution assays using yeasts ([32]). Microbes were passaged in YPD media at 37°C with mixing for 2 days before harvesting with an inoculation loop to prepare monocultures on Sabouraud Dextrose Agar (SDA) plates. Monocultures on SDA plates were incubated for 2 days at 37°C before harvesting cells for microdilution assays. RPMI media (100 μL) was charged to each of the 96 wells in a 96-well plate, with an additional 100 μL in the first column. Peptide-DMSO solution (4 μL) at 12.8 mg/mL was charged to each of the wells in the first column. The 100 μL was serially diluted by a factor of 2 from the first column to the 11th column. Microbe inoculant was then prepared. An inoculation loop was used to transfer 1–3 colonies of cells to 1 mL phosphate buffer solution (PBS). The PBS and microbe solution was made uniform by vortex mixing. Cell concentration was computed by comparing the absorbance at 530 nm to 1x McFarland standard solution and multiplying the resulting ratio by 10^7 cell/mL conversion factor. Plate inoculant was prepared by diluting the PBS microbe solution to 5000 cell/mL, in RPMI media. A 100 μL aliquot of cells was transferred to each of the wells on the plate other than column 11 for the no growth control. The operating volume was 200 μL, with 500 CFU per well for a final concentration of 2.5*10^3 cells/mL. Inoculated plates were incubated for 48 h at 37°C and read at 24 and 48 h ([33]).

C. neoformans H99 = details: for FIC H99 Caspofungin: Table S1, concentration of caspofungin in combination with the peptide; for FIC H99 Peptide: Table S1, concentration of peptide in combination with caspofungin; for MIC of caspofungin in the presence of 0.5 μg/mL peptide: H99, checkerboard, caspofungin alone 16 μg/mL
Description: (§2) Again, 200 μL was the operating volume, 500CFU per well, 2.5*10^3 cell/mL. Plates were incubated for 48 h at 37°C and read thereafter. The Fractional Inhibitory Concentration Index were calculated in Equation 1: FICIndex=FICA/MICA+FICB/MICB

ΔCDC50 mutant strain = details: for FIC ΔCDC50 Caspofungin: Table S1, concentration of caspofungin in combination with the peptide; for FIC ΔCDC50 Peptide: Table S1, concentration of peptide in combination with caspofungin
Description: as §2

cdc50Δ mutant strain = details: Table S1, drug alone
Description: as §1

[2] = test system: exofacial PS on C. neoformans cells; experiment: AF350-annexin V flow cytometry assay; details: 0.128 mg/mL peptide, 5*10^6 cell/mL, 20 min at 25°C, triplicate; control 0.2 ± 0.1%
Excerpt: We sought to determine whether the activities of the peptides were related to the lipid-flipping activity of the P4-ATPase. […] The intensity of the AF350-annexin V signal corresponds to concentration of PS on the exofacial side of the membrane. The propidium iodine signal corresponds to cell viability. […] Single cells were first selected and gated based on morphology to ensure homogeneity among the cell population (4A, 4B). We examined cells with low propidium iodine intensity (PI-A < 9 RU) and high AF350-annexin V intensity (Annexin V-A > 9 RU) (4C, 4D). Under these gating parameters there should be, respectively, low nonspecific cell death and high exofacial PS.
Stock microbes were defrosted from the –80°C freezer and were passed twice for 48 h each in YPD media. The YPD media was removed by spinning down and the supernatant was decanted. Pelletized cells were resuspended in 1 mL PBS media and washed for 5 min with incubation at 25°C and 250 RPM. Washed cells were spun down again and suspended in 1 mL of PBS solution. cells were diluted 20-fold into 1 mL fungal working solution in an eppendorf. Cell concentration was quantified via comparison to 1X McFarlain’s standard on a plate reader using the absorbance value at 530 nm. An aliquot of 1*10^6 cells in 100 μL was created (1*10^7cell/mL). A 100 μL aliquot of peptide working solution at 0.256 mg/mL was added to the cell suspension for final operating parameters of 200 μL, 0.128 mg/mL peptide, and 5*10^6cell/mL. The cells were incubated for 20 min at 25°C and 250RPM. Baseline and experimental samples were prepared in triplicate. Cells were stained using an operating concentration of 0.001 mg/mL Propidium Iodine (PI) and a 40-fold dilution of Alexa Fluor 350 labeled annexin V as per manufactures instructions. After staining the cells, samples were spun down and supernatant decanted. Cells were then fixed in 4% formaldehyde for 5 min. Fixed cells were spun down and supernatant decanted and resuspended in 400 μL 1% formaldehyde for flowcytometry. Samples were collected at a slow flow rate on a MACS Quant 10 device (Miltenyi Biotech, Auburn, CA) with 50,000 events collected per injection.

CCCCCCCCCCCCCC(=O)N[C@@H](Cc1ccc(O)cc1)C(=O)N[C@H](C(=O)N[C@@H](CC(=O)O)C(=O)NCC(=O)N[C@@H](Cc1ccccc1)C(=O)N1CCC[C@H]1C(=O)N[C@@H](CC(N)=O)C(=O)N[C@@H](CC(C)C)C(=O)N[C@@H](CCCNC(=N)N)C(=O)N[C@@H](CCC(=O)O)C(=O)N[C@@H](CC(=O)O)C(=O)N[C@@H](CCC(=O)O)C(=O)N[C@@H](Cc1c[nH]cn1)C(=O)N[C@@H](Cc1ccccc1)C(=O)N[C@@H](CCC(N)=O)C(=O)O)C(C)C [QY15-Ma] (Myristoyl-YVDGFPNLREDEHFQ-OH)
MIC H99 [1]: > 128 µg/mL
FIC H99 Caspofungin (C. neoformans H99; H99): 8 µg/mL
FIC H99 Peptide (C. neoformans H99; H99): 0.5 µg/mL
FIC ΔCDC50 Caspofungin (ΔCDC50 mutant strain): 1 µg/mL
FIC ΔCDC50 Peptide (ΔCDC50 mutant strain): 0.5 µg/mL

H-SESGIAWGGIKKNYA-OH [AS15]
MIC H99 [1]: > 128 µg/mL
FIC H99 Caspofungin (C. neoformans H99; H99): 8 µg/mL
FIC H99 Peptide (C. neoformans H99; H99): 0.5 µg/mL
FIC ΔCDC50 Caspofungin (ΔCDC50 mutant strain): 1 µg/mL
FIC ΔCDC50 Peptide (ΔCDC50 mutant strain): 0.5 µg/mL

CCCCCCCCCCCCCC(=O)N[C@@H](CO)C(=O)N[C@@H](CCC(=O)O)C(=O)N[C@@H](CO)C(=O)NCC(=O)N[C@H](C(=O)N[C@@H](C)C(=O)N[C@@H](Cc1c[nH]c2ccccc12)C(=O)NCC(=O)NCC(=O)N[C@H](C(=O)N[C@@H](CCCCN)C(=O)N[C@@H](CCCCN)C(=O)N[C@@H](CC(N)=O)C(=O)N[C@@H](Cc1ccc(O)cc1)C(=O)N[C@@H](C)C(=O)O)[C@@H](C)CC)[C@@H](C)CC [AS15-Ma] (Myristoyl-SESGIAWGGIKKNYA-OH)
MIC H99 [1]: > 128 µg/mL
MIC ΔCDC50 (cdc50Δ mutant strain): 8 µg/mL (≈ 4.47 µM)
MIC of caspofungin in the presence of 0.5 μg/mL peptide (C. neoformans H99): 8 µg/mL
FIC H99 Caspofungin (C. neoformans H99; H99): 8 µg/mL
FIC H99 Peptide (C. neoformans H99; H99): 0.5 µg/mL
FIC ΔCDC50 Caspofungin (ΔCDC50 mutant strain): 0.25 µg/mL
FIC ΔCDC50 Peptide (ΔCDC50 mutant strain): 0.25 µg/mL
percentage of cells with low propidium iodine (PI-A < 9 RU) and high AF350-annexin V intensity (Annexin V-A > 9 RU) [2]: 12.1 ± 2.0%

CCCCCCCCCC(=O)N[C@@H](CO)C(=O)N[C@@H](CCC(=O)O)C(=O)N[C@@H](CO)C(=O)NCC(=O)N[C@H](C(=O)N[C@@H](C)C(=O)N[C@@H](Cc1c[nH]c2ccccc12)C(=O)NCC(=O)NCC(=O)N[C@H](C(=O)N[C@@H](CCCCN)C(=O)N[C@@H](CCCCN)C(=O)N[C@@H](CC(N)=O)C(=O)N[C@@H](Cc1ccc(O)cc1)C(=O)N[C@@H](C)C(=O)O)[C@@H](C)CC)[C@@H](C)CC [AS15-Da] (Decanoyl-SESGIAWGGIKKNYA-OH)
MIC H99 [1]: > 128 µg/mL

CCCCCC(=O)N[C@@H](CO)C(=O)N[C@@H](CCC(=O)O)C(=O)N[C@@H](CO)C(=O)NCC(=O)N[C@H](C(=O)N[C@@H](C)C(=O)N[C@@H](Cc1c[nH]c2ccccc12)C(=O)NCC(=O)NCC(=O)N[C@H](C(=O)N[C@@H](CCCCN)C(=O)N[C@@H](CCCCN)C(=O)N[C@@H](CC(N)=O)C(=O)N[C@@H](Cc1ccc(O)cc1)C(=O)N[C@@H](C)C(=O)O)[C@@H](C)CC)[C@@H](C)CC [AS15-Ha] (Hexanoyl-SESGIAWGGIKKNYA-OH)
MIC H99 [1]: > 128 µg/mL

CCCCCCCCCCCCCCCC(=O)N[C@@H](CO)C(=O)N[C@@H](CCC(=O)O)C(=O)N[C@@H](CO)C(=O)NCC(=O)N[C@H](C(=O)N[C@@H](C)C(=O)N[C@@H](Cc1c[nH]c2ccccc12)C(=O)NCC(=O)NCC(=O)N[C@H](C(=O)N[C@@H](CCCCN)C(=O)N[C@@H](CCCCN)C(=O)N[C@@H](CC(N)=O)C(=O)N[C@@H](Cc1ccc(O)cc1)C(=O)N[C@@H](C)C(=O)O)[C@@H](C)CC)[C@@H](C)CC [AS15-Pa] (Palmitoyl-SESGIAWGGIKKNYA-OH)
MIC H99 [1]: > 128 µg/mL
FIC H99 Caspofungin (C. neoformans H99; H99): 8 µg/mL
FIC H99 Peptide (C. neoformans H99; H99): 0.5 µg/mL
FIC ΔCDC50 Caspofungin (ΔCDC50 mutant strain): 2 µg/mL
FIC ΔCDC50 Peptide (ΔCDC50 mutant strain): 2 µg/mL

CCCCCCCCCCCCCC(=O)N[C@@H](Cc1c[nH]c2ccccc12)C(=O)NCC(=O)NCC(=O)N[C@H](C(=O)N[C@@H](C)C(=O)N[C@@H](CCCCN)C(=O)N[C@@H](CC(N)=O)C(=O)N[C@@H](Cc1ccc(O)cc1)C(=O)N[C@@H](C)C(=O)O)[C@@H](C)CC [Peptide K5A-Ma] (Myristoyl-WGGIAKNYA-OH)
MIC [1]: >128 µg/mL
percentage of cells with low propidium iodine (PI-A < 9 RU) and high AF350-annexin V intensity (Annexin V-A > 9 RU) [2]: 5.6 ± 0.1%

H-YVDGFPNLREDEHFQ-OH [QY15]
MIC H99 [1]: > 128 µg/mL
FIC H99 Caspofungin (C. neoformans H99; H99): 8 µg/mL
FIC H99 Peptide (C. neoformans H99; H99): 0.5 µg/mL
FIC ΔCDC50 Caspofungin (ΔCDC50 mutant strain): 1 µg/mL
FIC ΔCDC50 Peptide (ΔCDC50 mutant strain): 0.5 µg/mL

CCCCCCCCCCCCCC(=O)N[C@@H](CO)C(=O)NCC(=O)N[C@H](C(=O)N[C@@H](C)C(=O)N[C@@H](Cc1c[nH]c2ccccc12)C(=O)NCC(=O)NCC(=O)N[C@H](C(=O)N[C@@H](CCCCN)C(=O)O)[C@@H](C)CC)[C@@H](C)CC [KS9-Ma] (Myristoyl-SGIAWGGIK-OH)
MIC H99 [1]: > 128 µg/mL

CCCCCCCCCCCCCC(=O)N[C@@H](Cc1c[nH]c2ccccc12)C(=O)NCC(=O)NCC(=O)N[C@H](C(=O)N[C@@H](C)C(=O)N[C@@H](C)C(=O)N[C@@H](CC(N)=O)C(=O)N[C@@H](Cc1ccc(O)cc1)C(=O)N[C@@H](C)C(=O)O)[C@@H](C)CC [K5A;K6A-Ma] (Myristoyl-WGGIAANYA-OH)
MIC [1]: >128 µg/mL
percentage of cells with low propidium iodine (PI-A < 9 RU) and high AF350-annexin V intensity (Annexin V-A > 9 RU) [2]: 1.3 ± 0.9%

CCCCCCCCCCCCCC(=O)N[C@@H](CO)C(=O)N[C@@H](CCC(=O)O)C(=O)N[C@@H](CO)C(=O)NCC(=O)N[C@H](C(=O)N[C@@H](C)C(=O)N[C@@H](Cc1c[nH]c2ccccc12)C(=O)NCC(=O)NCC(=O)O)[C@@H](C)CC [GS9-Ma] (Myristoyl-SESGIAWGG-OH)
MIC H99 [1]: > 128 µg/mL
MIC ΔCDC50 (cdc50Δ mutant strain): > 128 µg/mL

CCCCCCCCCCCCCC(=O)N[C@@H](Cc1c[nH]c2ccccc12)C(=O)NCC(=O)NCC(=O)N[C@H](C(=O)N[C@@H](CCCCN)C(=O)N[C@@H](C)C(=O)N[C@@H](CC(N)=O)C(=O)N[C@@H](Cc1ccc(O)cc1)C(=O)N[C@@H](C)C(=O)O)[C@@H](C)CC [Peptide K6A-Ma] (Myristoyl-WGGIKANYA-OH)
MIC [1]: >128 µg/mL

CCCCCCCCCCCCCCCC(=O)N[C@@H](Cc1c[nH]c2ccccc12)C(=O)NCC(=O)NCC(=O)N[C@H](C(=O)N[C@@H](CCCCN)C(=O)N[C@@H](CCCCN)C(=O)N[C@@H](CC(N)=O)C(=O)N[C@@H](Cc1ccc(O)cc1)C(=O)N[C@@H](C)C(=O)O)[C@@H](C)CC [AW9-Pa] (Palmitoyl-WGGIKKNYA-OH)
MIC H99 [1]: > 128 µg/mL
MIC ΔCDC50 (cdc50Δ mutant strain): 8 µg/mL (≈ 6.28 µM)
MIC of caspofungin in the presence of 0.5 μg/mL peptide (C. neoformans H99): 8 µg/mL
FIC Index H99 (C. neoformans H99; Table S1, caspofungin + peptide, H99): 0.5-1
FIC H99 Caspofungin (C. neoformans H99; H99): 8 µg/mL
FIC H99 Peptide (C. neoformans H99; H99): 0.5 µg/mL
FIC Index ΔCDC50 (ΔCDC50 mutant strain; Table S1, caspofungin + peptide): 0.75
FIC ΔCDC50 Caspofungin (ΔCDC50 mutant strain): 2 µg/mL
FIC ΔCDC50 Peptide (ΔCDC50 mutant strain): 1 µg/mL
